Experimental data as given in US8613948B2, “Treatment of faecal incontinence and other conditions with 1R, 2S-methoxamine” (Norgine BV, priority 2001, dated 2013).
Where “and” joins values, the source holds several entries; their conditions need not be identical. Equal values may be shown once.

Legend:
[1] = Methoxamine plasma levels in minipigs after topical administration to the anoderm; type: in vivo, Göttingen-minipigs; details: for mean peak plasma levels: 0.5 ml topical, two pigs
Protocol: (§1) The test substances were administered topically to the anoderm using a volume of 0.5 ml/animal. The interval between each observation period was 20 minutes. The administration was performed employing a 1 ml syringe inserted approximately 1 cm into the anal canal. The test substances were administered slowly while the syringe was rotated. After the preparation and a period of at least 15 minutes for stabilisation of the circulatory functions, the animals were treated with the placebo or the selected dose levels of the test substance by administration to the anoderm.
Blood samples (5 ml/time-point) were taken immediately before and 10, 20, 40, 60, 90, and 120 minutes after start of administration, and were collected into lithium-heparin containers. The blood samples were immediately cooled at +2° C. to +8° C. by the use of an IsoTherm-Rack system (Eppendorf-Netheler-Hinz GmbH, D-22331 Hamburg, Germany) and the whole blood was processed for […]. Plasma was prepared by centrifugation (5 min, 4000 rpm, at +5° C.) and split into aliquots of approx. 1 ml each. Both plasma aliquots were immediately frozen at −80° C. at least and stored at this temperature until dispatch of one aliquot on dry ice for analysis.
The samples were analysed for the methoxamine plasma levels. The results are presented in Appendix 3.

anaesthetised minipigs [2] = experiment: Mean anal resting pressure (MARP) in anaesthetised minipigs after topical administration to the anoderm; type: in vivo, Göttingen-minipigs; details: for effect on internal anal sphincter pressure and blood pressure: pigs in vivo
Protocol: • a) Placebo in 4% w/w gel • b) 0.3% by weight 1R,2S-methoxamine in 4% w/w gel • c) 1% by weight 1R,2S-methoxamine in 4% w/w gel • d) 3% by weight 1R,2S-methoxamine in 4% w/w gel • The 4% w/w gel comprises 4 g of hydroxypropylmethyl cellulose in 96 ml of 0.5M acetate buffer. 1% by weight 1R,2S-methoxamine in 4% w/w gel comprises 1 g of 1R,2S-methoxamine in 99 g of the 4% gel. Animals/Animal Maintenance
Göttingen-minipigs obtained from Ellegaard Göttingen Minipigs ApS, Soro Landevej 302, DK-4261 Dalmose, Denmark were used for the investigation. […] Four male animals were used. Animal no. 2 was replaced by animal no. 4, see below.
The minipigs were anaesthetised with a chloralose-urethane mixture (ratio 1+5). Additional anaesthesia was given when needed. To ensure a stable general condition of the minipig, blood gases and pH-value were measured in blood obtained from the right or left a. femoralis using a blood gas analyser ABL 70 (Radiometer, Copenhagen, Denmark) before start of experiment. Ringer solution (5 ml/kg b.w./h) was given continuously to compensate for fluid losses. The body temperature of the animals was maintained at 38° C. throughout the experiment of external heating.
as §1
The anal resting pressure was measured by introduction of a manometric probe (Unisensor Microtipcatheter 8104-00-9409-D; Medical Measurement Systems b.v., Collosseum 25, NL-7521P.V. Enschede, The Netherlands) into the rectum three times. The anal resting pressure taken as a mean of these three measurements (MARP) was recorded with a Rikadenki Multipenrecorder.

anaesthetised minipigs [3] = test system: anaesthetised minipigs; design: species or system Göttingen-minipigs; details: in vivo
Protocol: as §1
ECG recordings were made using the standard limb leads I, II and III as well as augmented limb leads aVR, aVL and aVF. A standardisation of 10 mm/1 mV was used and a paper speed of 50 mm/sec. The recordings were carried out using a HELLIGE Marquette mac 5000 12SL. The recordings were examined visually for any arrhythmias and abnormalities of the electrical complexes. In addition, the following parameters were evaluated for limb lead II: Heart rate [beats/min]; P segment, [msec]; P-Q interval, [msec]; QRS complex [msec]; Q-T interval, [msec]. The QTc values [msec] were calculated according to the van de Water-formula: QTc=QT−0.087 (R-R distance−1000)
For each measurement period the heart rate, ECG and the blood pressure in the a. femoralis were measured continuously and recorded immediately before and 5, 10, 15, 20, 40 and 60 minutes after start of administration for periods of approx. 30 sec, and then in intervals of 20 minutes until any effect had subsided.

anoderm = experiment: Macroscopical inspection of the anoderm; type: in vivo, Göttingen-minipigs; details: 0.3%, 1%, or 3%
Protocol: A macroscopical inspection of the anoderm was carried out during the experiments. Any obvious irritation and/or erythema caused by the fairly low pH value of the test substance formulation was reported.

COc1ccc(OC)c([C@@H](O)C(C)N)c1 (single isomer, unassigned) [1R,2S-methoxamine]
maximum plasma levels ([1]; 0.3% formulation): 6 ng methoxamine/ml plasma
time of peak plasma levels ([1]; 0.3% gel): 40 min
mean peak plasma levels ([1]; 0.3% gel): 4.90 ng/mL and 6.97 ng/mL
time of maximum plasma levels following application ([1]; 0.3%, 1% and 3% formulations): approximately 40 minutes
maximum plasma levels ([1]; 1% formulation): 10 ng methoxamine/ml plasma
mean peak plasma levels ([1]; 1.0% gel): 9.88 ng/mL and 11.0 ng/mL
maximum plasma levels ([1]; 3% formulation): 56 ng methoxamine/ml plasma
mean peak plasma levels ([1]; 3.0% gel): 50.4 ng/mL and 61.3 ng/mL
increase in MARP compared to the start value (anaesthetised minipigs [2]; 0.5 ml of 0.3% gel): 73%
period of MARP increase (anaesthetised minipigs [2]; 0.5 ml of 0.3% gel): 110 min
start of MARP increase after administration (anaesthetised minipigs [2]; 0.5 ml of 0.3% gel): 5 min
MARP (anaesthetised minipigs [2]; 0.5 ml of 0.3% gel, topical to anoderm, average): 50 mmHg
increase in MARP (anaesthetised minipigs [2]; 0.5 ml of 1% gel): 227%
time after application to MARP increase (anaesthetised minipigs [2]; 0.5 ml of 1% gel): ≤ 20 min
MARP (anaesthetised minipigs [2]; 0.5 ml of 1% gel, average): 64 mmHg
MARP (anaesthetised minipigs [2]; 0.5 ml of 3% gel): 70 mmHg
MARP (anaesthetised minipigs [2]; 0.5 ml of 3% gel, listed as IR,2S-methoxamine): approx. 70 mmHg
effect on internal anal sphincter pressure and blood pressure (anaesthetised minipigs [2]; 0.5 ml of gel containing 1% or 0.3% by weight (5 mg and 1.5 mg), topical): increase internal anal sphincter pressure without any effect on blood pressure
effect on internal anal sphincter pressure and blood pressure (anaesthetised minipigs [2]; gels containing 1% by weight and even as little as 0.1% by weight): increase internal anal sphincter pressure without any effect on blood pressure
heart rate (anaesthetised minipigs [3]; Göttingen, minipig, 2 h): approx. 100 beats/min
increase in the heart rate (anaesthetised minipigs [3]; Göttingen, minipig, 2 h): 29%
influence on P-segment, P-Q interval, Q-T interval, QTc value and QRS complex (anaesthetised minipigs [3]): no substance-related influence
prolongation of the QT-interval (anaesthetised minipigs [3]): no evidence was noted for a prolongation of the QT-interval
ventricular premature complexes (visual assessment of ECG) (anaesthetised minipigs [3]): did not reveal any ventricular premature complexes
macroscopic inspection: pathological changes (anoderm): No pathological changes were observed
